Assay results from PMC7255104, “Receptor Characterization and Functional Activity of Pyrokinins on the Hindgut in the Adult Mosquito, Aedes aegypti” (Frontiers in Physiology, 2020).
Where a SMILES comes first, the peptide text is derived from it.

Tests used:
A. aegypti PK2-R = biological target: T1, A. aegypti PK2-R (Aedes aegypti, UniProt V9P4J1); assay: Heterologous functional receptor assay (aequorin bioluminescence), PK2-R; format: cell-based; settings: for EC50: CHO-K1 cells transiently expressing PK2-R and aequorin, luminescence normalized to 50 μM ATP, two biological replicates, 4-8 technical replicates each, read-out: EC50, activation of A. aegypti PK2-R
T1 sequence (V9P4J1 1-638): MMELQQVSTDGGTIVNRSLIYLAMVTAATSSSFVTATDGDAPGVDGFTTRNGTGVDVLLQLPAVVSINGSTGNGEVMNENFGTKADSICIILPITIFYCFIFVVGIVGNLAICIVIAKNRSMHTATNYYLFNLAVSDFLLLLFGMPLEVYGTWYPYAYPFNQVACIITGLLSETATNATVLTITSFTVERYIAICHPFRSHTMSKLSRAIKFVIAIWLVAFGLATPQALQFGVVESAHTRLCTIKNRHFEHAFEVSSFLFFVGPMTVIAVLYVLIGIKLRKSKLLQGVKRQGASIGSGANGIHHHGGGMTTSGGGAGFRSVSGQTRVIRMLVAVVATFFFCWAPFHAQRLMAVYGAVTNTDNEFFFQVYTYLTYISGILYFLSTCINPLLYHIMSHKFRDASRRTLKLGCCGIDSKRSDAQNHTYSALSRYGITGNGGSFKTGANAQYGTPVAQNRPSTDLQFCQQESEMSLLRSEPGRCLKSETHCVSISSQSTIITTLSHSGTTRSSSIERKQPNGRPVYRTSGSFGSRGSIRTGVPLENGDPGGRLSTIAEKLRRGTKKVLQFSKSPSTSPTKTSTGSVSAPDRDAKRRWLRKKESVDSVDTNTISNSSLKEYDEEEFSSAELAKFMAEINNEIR
Description: The complete open reading frame was amplified based on the partial ([Nene et al., 2007]) and complete sequences ([Choi et al., 2013]) reported earlier for the A. aegypti PK1-R (Genbank accession: EAT35008.1) and PK2-R (Genbank accession: KC155994.1). Forward 5′-[…]-3′ (PK1-R) or 5′-[…]-3′ (PK2-R) and reverse 5′-[…]-3′ (PK1-R) or 5′-[…]-3′ (PK2-R) primers were designed over the start and stop codons (underlined), respectively, and used to amplify the complete coding sequence using Q5 High-Fidelity DNA polymerase following manufacturer recommendations (New England Biolabs, Whitby, ON). […] The resulting products were cloned into pGEM-T Easy sequencing vector, and miniprep samples were sequenced to verify base accuracy. The receptor constructs were excised using standard restriction enzyme digestion and subcloned into the mammalian expression vector, pcDNA 3.1^+ (Life Technologies, Burlington, ON, Canada). Transfection quality plasmid DNA was purified from an overnight bacterial culture using the PureLink MidiPrep Kit (Invitrogen, Burlington, ON, Canada) following manufacturer guidelines.
Chinese hamster ovary cells (CHO-K1) described previously ([Paluzzi et al., 2012]; [Gondalia et al., 2016]; [Wahedi and Paluzzi, 2018]) were grown in Dulbecco’s modified eagles medium: nutrient F12 (DMEM:F12) media containing 10% heat-inactivated fetal bovine serum (FBS; Wisent, St. Bruno, QC, Canada), 200 μg/mL geneticin, and antimycotic-antibiotic mixture as described previously ([Wahedi and Paluzzi, 2018]). […] Various concentrations of synthesized PK peptides and other peptides (purity > 90%; Genscript, Piscataway, NJ, United States) were prepared in BSA media and loaded in quadruplicate into white 96-well luminescence plates (Greiner Bio-One, Germany).
Luminescence responses to A. aegypti CAPA-1 (GPTVGLFAFPRV-NH2), CAPA-2 (pQGLVPFPRV-NH2) and CAPA-PK1 (AGNSGANSGMWFGPRL-NH2) peptides, along with the R. prolixus PK2 orthologs, PK2a (NTVNFSPRL-NH2), and PK2b (SPPFAPRL-NH2) were examined. A list of peptides used in this study and sequence comparison to native A. aegypti pyrokinin peptides is found in Supplementary Table S1. Cells prepared for the functional assay were loaded into each well of the plate using an automated injector unit and luminescent response was measured with a Synergy 2 Multi-Mode Microplate Reader (BioTek, Winooski, VT, United States). Negative controls were carried out using BSA media alone whereas 50 μM ATP, which activates endogenously expressed purinoceptors ([Iredale and Hill, 1993]; [Michel et al., 1998]), was used as a positive control. Luminescence responses were normalized to ATP responses and analyzed in GraphPad Prism 7.02 (GraphPad Software, San Diego, CA, United States). EC50 values were determined using dose-response curves from multiple biological replicates.

[1] = test system: isolated ilea of female A. aegypti; assay: Ileal motility assay (video recordings); set-up: species or system Aedes aegypti; settings: Figure 7, 1 μM, RhoprMIP-7 added together with 1 μM RhoprPK2b, mean of 17 preparations
Procedure: Hindgut contraction assays were conducted on isolated […] of female A. aegypti. […] The isolated tissue was secured with minutien pins within a Sylgard-lined petri-dish. Given its high sequence similarity to endogenous A. aegypti PK2 peptides (Supplementary Table S1), we used the R. prolixus PK2b peptide ([Paluzzi and O'Donnell, 2012]), henceforth referred to as RhoprPK2b, for motility bioassays. Commercially synthesized peptides (Genscript, Piscataway, NJ, United States), […] ([…]) and RhoprPK2[…]), were used to examine myomodulatory activity. Serotonin (5-hydroxytryptamine, 5-HT; Sigma-Aldrich, Oakville, ON, Canada), previously shown to stimulate A. aegypti hindgut contractions ([Messer and Brown, 1995]), was used as a stimulatory control. Given the inhibitory properties of myoinhibitory peptides (having the consensus W(X6)W-NH2 carboxyl terminus) on insect hindgut motility ([Lange et al., 2012]), RhoprMIP-7 ([…]; Genscript, Piscataway, NJ, United States; [Paluzzi et al., 2015]) was used as an inhibitory control. […] Unlike the rectum, the mosquito ileum produces weaker contractions that we were unable to measure using an impedance converter as described above. […] The dissected gut was pinned in the midgut and rectum to allow the ileum to freely contract in saline and following treatments. Contractions were recorded for 2 min in saline that was used for baseline activity measurements, followed by three subsequent 2-min recordings, including: […] The RhoprPK2b was added along with the stimulatory or inhibitory compound (5-HT or RhoprMIP-7, respectively), to maintain its 1 μM concentration in the bath. […] To account for any potential changes in tissue contractile activity upon adding solutions to the bath, each of these variables were measured relative to baseline saline recordings of the same preparation as a ratio of change, where a value above or below one indicates an increase or a decrease, (respectively), in the rate, duration or length between each contraction in response to the treatment.

[2] = test system: rectal pad epithelia of female A. aegypti; assay: Scanning ion-selective electrode technique (SIET), Na+ flux; set-up: species or system Aedes aegypti
Procedure: Female mosquitoes were anesthetized on ice for 3 min and dissected in Ca^2+-free A. aegypti saline, as described previously ([Paluzzi et al., 2014]), to limit spontaneous hindgut contractions during ion flux measurements. The isolated rectum was then transferred to a Petri dish with saline, pre-coated with poly-L-lysine ([Paluzzi et al., 2014]) to allow the tissue to adhere to the bottom of the dish.
AedaeCAPA-PK1 or D. melanogaster Droso-leucokinin (NSVVLGKKQRFHSWG-NH2, Genscript, Piscataway, NJ, United States; provided by Prof. Dick Nässel, Stockholm University, Sweden) were solubilized in double distilled water as a 1 mM stock and then diluted in the above-mentioned Ca^2+-free A. aegypti saline to achieve a 1 μM final concentration. Control measurements were obtained by applying an equal volume of saline only, referred to as saline control treatments. […]
SIET measurements were obtained through the Automated Scanning Electrode Technique (ASET) software (Science Wares, East Falmouth, MA, United States). […] Voltage gradients were measured as the microelectrode moved perpendicularly to the tissue surface between two points separated by a distance of 100 μm. […] Following background voltage readings, the ion-selective microelectrode tip was positioned at a distance of 2 μm from the rectal pad epithelia. […] Following measurements at the rectal pad sites, background voltage readings were again recorded at a distance of 3 mm away from the tissue.
Calculation of ion flux used in this study has been described previously ([Paluzzi et al., 2014]). […] The change in flux upon treatment application was calculated by subtracting flux values obtained during saline measurements, in which a positive change indicates increased ion absorption, and a negative change represents a decrease in absorption.

Compound: CC(C)C[C@H](NC(=O)CNC(=O)[C@@H](NC(=O)[C@@H](NC(=O)[C@@H]1CCCN1C(=O)CN)[C@@H](C)O)C(C)C)C(=O)N[C@@H](Cc1ccccc1)C(=O)N[C@@H](C)C(=O)N[C@@H](Cc1ccccc1)C(=O)N1CCC[C@H]1C(=O)N[C@@H](CCCNC(=N)N)C(=O)N[C@H](C(N)=O)C(C)C [AedaeCAPA-1] (H-GPTVGLFAFPRV-NH2)
- activation of PK2-R relative to the highly potent pyrokinins (A. aegypti PK2-R; CHO-K1 cells expressing PK2-R, very high concentrations): ≤ 25%

Compound: CSCC[C@H](NC(=O)CNC(=O)[C@H](CO)NC(=O)[C@H](CC(N)=O)NC(=O)[C@H](C)NC(=O)CNC(=O)[C@H](CO)NC(=O)[C@H](CC(N)=O)NC(=O)CNC(=O)[C@H](C)N)C(=O)N[C@@H](Cc1c[nH]c2ccccc12)C(=O)N[C@@H](Cc1ccccc1)C(=O)NCC(=O)N1CCC[C@H]1C(=O)N[C@@H](CCCNC(=N)N)C(=O)N[C@@H](CC(C)C)C(N)=O [AedaeCAPA-PK1] (H-AGNSGANSGMWFGPRL-NH2)
- EC50 (A. aegypti PK2-R): 158 nM

Compound: CC(C)C[C@H](NC(=O)[C@H](CCCNC(=N)N)NC(=O)[C@@H]1CCCN1C(=O)[C@H](CO)NC(=O)[C@H](Cc1ccccc1)NC(=O)[C@H](CC(N)=O)NC(=O)[C@@H](NC(=O)[C@@H](NC(=O)[C@@H](N)CC(N)=O)[C@@H](C)O)C(C)C)C(N)=O [RhoprPK2a] (H-NTVNFSPRL-NH2)
- EC50 (A. aegypti PK2-R): 17.5 nM

Compound: CC(C)C[C@H](NC(=O)[C@H](CCCNC(=N)N)NC(=O)[C@@H]1CCCN1C(=O)[C@H](C)NC(=O)[C@H](Cc1ccccc1)NC(=O)[C@@H]1CCCN1C(=O)[C@@H]1CCCN1C(=O)[C@@H](N)CO)C(N)=O [RhoprPK2b] (H-SPPFAPRL-NH2)
- EC50 (A. aegypti PK2-R): 8.54 nM

Compound: AWNSLHGGW-NH2 [RhoprMIP-7]
- duration of each ileal contraction relative to baseline [1]: about 1.9 fold
- ileal contraction frequency relative to baseline [1]: 0.38 fold
- relaxation duration (length of time between ileal contractions) relative to baseline [1]: 3.9 fold

Compound: NSVVLGKKQRFHSWG-NH2 [Droso-leucokinin, D. melanogaster kinin analog used in Na+ transport measurements]
- decrease in Na+ absorption across rectal pad epithelia relative to initial transport in saline ([2]; 1 μM in Ca2+-free saline, absorptive female recta only, mean ± SEM of 10 to 14 preparations, SEM): 201.6 ± 39.0 pmol cm^–2 s^–1
- fold decrease in Na+ absorption compared to saline control ([2]; 1 μM, female rectal pad epithelia): four-fold decrease
- significance of change in Na+ transport versus saline alone ([2]; 1 μM, one-way ANOVA and Tukey's post hoc test): significant
